Assay results taken from PubChem BioAssay AID206 (DTP/NCI, 2004).
Values joined by “and” are separate entries in the source; they are usually repeats but may differ in a detail not shown here. Identical values can stand only once. Results filed as inconclusive are left out.

System: nude mice, HT29 intrarenal xenograft, tumor weight T/C
Assay: NCI In Vivo Anticancer Drug Screen. Data for tumor model HT29;CX-1 Human Adenocarcinoma (MER+) (intrarenal inoculation) in NU/NU Swiss (nude) mice
Conditions: endpoint: mean tumor weight change, higher = larger tumour
Outline: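 Tumor-bearing mice received test compound or vehicle, and tumor size or survival was recorded. Values are the treated-group measurement divided by the vehicle-treated control measurement.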

[1] = dose: 200.0 mg/kg/injection, schedule: Q04DX004 (sc), vehicle: suspension in saline
[2] = dose: 400.0 mg/kg/injection, schedule: Q04DX004 (sc), vehicle: suspension in saline
[3] = dose: 800.0 mg/kg/injection, schedule: Q04DX004 (sc), vehicle: suspension in saline
[4] = dose: 200.0 mg/kg/injection, schedule: Q04DX004 (sc), vehicle: saline with Tween-80
[5] = dose: 400.0 mg/kg/injection, schedule: Q04DX004 (sc), vehicle: saline with Tween-80
[6] = dose: 150.0 mg/kg/injection, schedule: Q04DX004 (sc), vehicle: saline with Tween-80
[7] = dose: 300.0 mg/kg/injection, schedule: Q04DX004 (sc), vehicle: saline with Tween-80
[8] = dose: 1200.0 mg/kg/injection, schedule: Q04DX004 (sc), vehicle: saline with Tween-80

In the case of `CCC1OCC(C(Cl)CCl)O1` (centres undefined), the T/C (dose: 37.5 mg/kg/injection, schedule: Q01DX014 (sc), vehicle: Klucel (hydroxypropylcellulose) (HPC)) is reported as 100 % of control, the T/C (dose: 37.5 mg/kg/injection, schedule: Q04DX014 (sc), vehicle: Klucel (hydroxypropylcellulose) (HPC)) is reported as 58 % of control and the T/C (dose: 75.0 mg/kg/injection, schedule: Q01DX014 (sc), vehicle: Klucel (hydroxypropylcellulose) (HPC)) is reported as 193 % of control. The T/C (dose: 75.0 mg/kg/injection, schedule: Q04DX014 (sc), vehicle: Klucel (hydroxypropylcellulose) (HPC)) was 30 % of control, the T/C (dose: 150.0 mg/kg/injection, schedule: Q01DX014 (sc), vehicle: Klucel (hydroxypropylcellulose) (HPC)) was 86 % of control and the T/C (dose: 150.0 mg/kg/injection, schedule: Q04DX014 (sc), vehicle: Klucel (hydroxypropylcellulose) (HPC)) was 1 % of control. The T/C (dose: 300.0 mg/kg/injection, schedule: Q01DX014 (sc), vehicle: Klucel (hydroxypropylcellulose) (HPC)) was 122 % of control, the T/C (dose: 300.0 mg/kg/injection, schedule: Q04DX004 (sc), vehicle: other) was 83 % of control and the T/C (dose: 300.0 mg/kg/injection, schedule: Q04DX014 (sc), vehicle: Klucel (hydroxypropylcellulose) (HPC)) was -30 % of control. The T/C (dose: 600.0 mg/kg/injection, schedule: Q01DX014 (sc), vehicle: Klucel (hydroxypropylcellulose) (HPC)) was 25 % of control, the T/C (dose: 600.0 mg/kg/injection, schedule: Q04DX004 (sc), vehicle: other) was 21 % of control and the T/C (dose: 600.0 mg/kg/injection, schedule: Q04DX014 (sc), vehicle: Klucel (hydroxypropylcellulose) (HPC)) was -99 % of control.
For `C1CCC2C[N-]CCC2C1.C1CCC2C[N-]CCC2C1.C1CCC2C[N-]CCC2C1.C1CCC2C[N-]CCC2C1.[Cl][Rh][Cl]` (centres undefined), the T/C (dose: 9.0 mg/kg/injection, schedule: Q04DX004 (sc), vehicle: saline with Tween-80) was 96 % of control, the T/C (dose: 18.0 mg/kg/injection, schedule: Q04DX004 (sc), vehicle: saline with Tween-80) was 82 % of control and the T/C (dose: 36.0 mg/kg/injection, schedule: Q04DX004 (sc), vehicle: saline with Tween-80) was 84 % of control. The T/C (dose: 72.0 mg/kg/injection, schedule: Q04DX004 (sc), vehicle: saline with Tween-80) was 73 % of control.
With `Cc1ccccc1N(CC1CO1)CC1CO1` (centres undefined) the T/C (dose: 50.0 mg/kg/injection, schedule: Q01DX010 (sc), vehicle: suspension in saline) was 157 % of control, the T/C (dose: 100.0 mg/kg/injection, schedule: Q01DX010 (sc), vehicle: suspension in saline) was 38 % of control and the T/C (dose: 200.0 mg/kg/injection, schedule: Q01DX010 (sc), vehicle: suspension in saline) was 15 % of control. The T/C (dose: 800.0 mg/kg/injection, schedule: Q01DX010 (sc), vehicle: suspension in saline) was 67 % of control.
For `CCC(=O)N(C)[C@@H](C)C(=O)O[C@H]1CC(=O)N(C)c2cc(cc(OC)c2Cl)C/C(C)=C/C=C[C@@H](OC)[C@@]2(O)C[C@H](OC(=O)N2)[C@@H](C)[C@@H]2O[C@@]12C`, the T/C (dose: 0.03 mg/kg/injection, schedule: Q01DX010 (sc), vehicle: saline + alcohol) was 171 % of control, the T/C (dose: 0.06 mg/kg/injection, schedule: Q01DX010 (sc), vehicle: saline + alcohol) was 65 % of control and the T/C (dose: 0.07 mg/kg/injection, schedule: Q01DX010 (sc), vehicle: saline + alcohol) was 120 % of control. The T/C (dose: 0.12 mg/kg/injection, schedule: Q01DX010 (sc), vehicle: saline + alcohol) was 34 % of control, the T/C (dose: 0.13 mg/kg/injection, schedule: Q01DX010 (sc), vehicle: saline + alcohol) was 69 % of control and the T/C (dose: 0.25 mg/kg/injection, schedule: Q01DX010 (sc), vehicle: saline + alcohol) was 2 % of control and 18 % of control.
For `Oc1c(Cl)cc(C(c2cc(Cl)c(O)c(Cl)c2)C(c2cc(Cl)c(O)c(Cl)c2)c2cc(Cl)c(O)c(Cl)c2)cc1Cl`, the T/C (dose: 450.0 mg/kg/injection, schedule: Q04DX004 (sc), vehicle: Klucel (hydroxypropylcellulose) (HPC)) was 104 % of control, the T/C (dose: 900.0 mg/kg/injection, schedule: Q04DX004 (sc), vehicle: Klucel (hydroxypropylcellulose) (HPC)) was 95 % of control and the T/C (dose: 1800.0 mg/kg/injection, schedule: Q04DX004 (sc), vehicle: Klucel (hydroxypropylcellulose) (HPC)) was 96 % of control.
In the case of `Cc1ccc2nc(-c3ccc4nc(-c5ccc(N=Nc6ccc(-c7nc8ccc(-c9nc%10ccc(C)c(S(=O)(=O)O)c%10s9)cc8s7)cc6)cc5)sc4c3)sc2c1S(=O)(=O)O`, the T/C [1] is reported as 190 % of control, the T/C [2] is reported as 109 % of control and the T/C [3] is reported as 221 % of control. For the same molecule, the T/C (dose: 1600.0 mg/kg/injection, schedule: Q04DX004 (sc), vehicle: suspension in saline) was 50 % of control.
For `CN(CO)c1nc(N(C)CO)nc(N(C)CO)n1`, the T/C (dose: 25.0 mg/kg/injection, schedule: Q01DX010 (sc), vehicle: saline) was 65 % of control and 81 % of control and the T/C (dose: 100.0 mg/kg/injection, schedule: Q01DX010 (sc), vehicle: saline) was 17 % of control.
With `C1CC[N-]CC1.[Cl][Pt+2][Cl].[NH-]C1CC1` the T/C (dose: 50.0 mg/kg/injection, schedule: Q04DX004 (sc), vehicle: water) was 51 % of control and 54 % of control and the T/C (dose: 100.0 mg/kg/injection, schedule: Q04DX004 (sc), vehicle: water) was 17 % of control.
In the case of `BrC1CC(Br)c2c1c1c(c3c2C(Br)CC3Br)C(Br)CC1Br` (centres undefined), the T/C (dose: 225.0 mg/kg/injection, schedule: Q04DX004 (sc), vehicle: water) is reported as 76 % of control, the T/C (dose: 300.0 mg/kg/injection, schedule: Q04DX004 (sc), vehicle: water) is reported as 84 % of control and the T/C (dose: 450.0 mg/kg/injection, schedule: Q04DX004 (sc), vehicle: water) is reported as 157 % of control. The T/C (dose: 900.0 mg/kg/injection, schedule: Q04DX004 (sc), vehicle: water) was 158 % of control, the T/C (dose: 1200.0 mg/kg/injection, schedule: Q04DX004 (sc), vehicle: water) was 116 % of control and the T/C (dose: 1800.0 mg/kg/injection, schedule: Q04DX004 (sc), vehicle: water) was 22 % of control.
In the case of `C/C(=N\NC(N)=O)c1cccc(/C(C)=N/NC(N)=O)n1`, the T/C [4] is reported as 106 % of control and the T/C [5] is reported as 108 % of control.
For `Cc1[nH]c(=O)[nH]c(=O)c1N(CCF)CCCl`, the T/C (dose: 10.0 mg/kg/injection, schedule: Q01DX010 (sc), vehicle: Klucel (hydroxypropylcellulose) (HPC)) was 117 % of control, the T/C (dose: 20.0 mg/kg/injection, schedule: Q01DX010 (sc), vehicle: Klucel (hydroxypropylcellulose) (HPC)) was 95 % of control and the T/C (dose: 40.0 mg/kg/injection, schedule: Q01DX010 (sc), vehicle: Klucel (hydroxypropylcellulose) (HPC)) was 48 % of control.
`CC[C@@]1(O)C[C@H](OC2CC(N(C)C)C(OC3CC(O)C(OC4CCC(=O)C(C)O4)C(C)O3)C(C)O2)c2c(cc3c(c2O)C(=O)c2c(O)cccc2C3=O)[C@H]1C(=O)OC` (some centres undefined) was tested, and the T/C (dose: 0.5 mg/kg/injection, schedule: Q01DX010 (ip), vehicle: water) was 35 % of control, the T/C (dose: 2.0 mg/kg/injection, schedule: Q04DX004 (ip), vehicle: water) was 114 % of control and the T/C (dose: 4.0 mg/kg/injection, schedule: Q04DX004 (ip), vehicle: water) was 61 % of control. For the same molecule, the T/C (dose: 4.0 mg/kg/injection, schedule: Q04DX004 (sc), vehicle: water) was 25 % of control, the T/C (dose: 8.0 mg/kg/injection, schedule: Q04DX004 (ip), vehicle: water) was 37 % of control and the T/C (dose: 8.0 mg/kg/injection, schedule: Q04DX004 (sc), vehicle: water) was 4 % of control.
In the case of `CCC1=C2C(=O)c3ccccc3C2=C(C)S(=O)(=O)O1`, the T/C [6] is reported as 70 % of control, the T/C [7] is reported as 50 % of control and the T/C [8] is reported as 89 % of control.
In the case of `CC1=CC(=NN=c2cc(C)n([O-])c(C)c2)C=C(C)[N+]1=O`, the T/C (dose: 100.0 mg/kg/injection, schedule: Q04DX004 (sc), vehicle: suspension in saline) is reported as 73 % of control, the T/C [1] is reported as 48 % of control and the T/C [2] is reported as 40 % of control. For the same molecule, the T/C [3] was 39 % of control.
With `COC1=C(OC)C(=O)C(SC/C=C(\C)CCCC(C)CCCC(C)CCCC(C)C)=CC1=O` (centres undefined) the T/C (dose: 100.0 mg/kg/injection, schedule: Q04DX004 (sc), vehicle: saline with Tween-80) was 11 % of control, the T/C [4] was 36 % of control and the T/C [7] was 59 % of control. For the same molecule, the T/C [5] was 18 % of control, the T/C (dose: 600.0 mg/kg/injection, schedule: Q04DX004 (sc), vehicle: saline with Tween-80) was 26 % of control and the T/C (dose: 800.0 mg/kg/injection, schedule: Q04DX004 (sc), vehicle: saline with Tween-80) was 12 % of control. For the same molecule, the T/C [8] was 39 % of control and the T/C (dose: 2400.0 mg/kg/injection, schedule: Q04DX004 (sc), vehicle: saline with Tween-80) was 55 % of control.
With `CCOC(OCC)C(=O)OCC(=O)[C@]1(O)Cc2c(O)c3c(c(O)c2[C@@H](OC2CC(N)C(O)C(C)O2)C1)C(=O)c1c(OC)cccc1C3=O` (some centres undefined) the T/C (dose: 20.0 mg/kg/injection, schedule: Q04DX004 (sc), vehicle: water) was 33 % of control.
In the case of `O=Cc1ccc(C(Cl)(Cl)Cl)cc1`, the T/C (dose: 100.0 mg/kg/injection, schedule: Q01DX010 (sc), vehicle: saline with Tween-80) is reported as 121 % of control and the T/C (dose: 400.0 mg/kg/injection, schedule: Q01DX010 (sc), vehicle: saline with Tween-80) is reported as 107 % of control.
With `O=C1CN(Cc2ccc3c(c2)OCO3)NO1` the T/C [6] was 92 % of control and the T/C [7] was 103 % of control.
